These results are taken from patent US20230286919A1, “ISOQUINOLINE DERIVATIVES FOR USE IN THERAPY” (Vestlandets Innovasjonsselskap AS, priority 2020, published 2023).

Each structure is given as a SMILES string.

Data set [1] concerns phosphorylated STAT3 (Tyr705). As to the kind of experiment: Western blot, IL-6-induced phosphorylation of STAT3 (Tyr705) in LNCaP cells. The class given is cell-based, human. As to conditions: 20 μM, 24 hrs, 10 ng/ml IL-6 last 15 min. How it is done:
To obtain the results shown in FIG. 9, LNCaP cells were treated with DMSO, 20 μM of compound 323-1 or 323-2 or 5 μM cryptotanshinone for 24 hrs before treatment with or without 10 ng/ml IL-6 for the last 15 min.

The test system of the next data set is LNCaP tumours. Nature of the data set: Antitumor activity in vivo, LNCaP xenograft. Particulars: IP daily for three weeks. How it is done: Four-week-old male BALB/c-nu nude mice (15-20 g) were obtained from the Shanghai BiKai Laboratory Animal Co., Ltd. (Shanghai, China). The animals were maintained under specific pathogen-free conditions with food and water supplied ad libitum in the Laboratory Animal Center of the Second Military Medical University. All animal experiments were carried out in accordance with the Guide for the Care and Use of Laboratory Animals of the National Institutes of Health and were approved by the Committee on the Ethics of Animal Experiments of the Second Military Medical University, China. LNCaP cells were harvested and re-suspended in PBS. A total of 5×10^6 cells were subcutaneously injected into the right flank. Tumour volume was calculated using the following formula: V=(L×[…])/2, where L is the length and W is the width of the tumour nodules measured with vernier callipers. Once the volume of the tumours reached 75-100 mm^3, the mice were randomly divided into three groups (n=6). […] Body weights and tumour volumes were measured before each drug injection. […]
The mice were treated daily for three weeks with IP injections of either vehicle (olive oil) or compound 323-2 (20 mg/kg or 40 mg/kg in the vehicle). Body weights and tumour volumes were measured before each drug injection. […]

The next data set relates to STAT3. Nature of the data set: DARTS (drug affinity responsive target stability) assay in EPT3M1-STAT3 cell lysates. The data set is classed as binding, human. As to conditions: 200 μM. How it is done: EPT3M1-STAT3 cells were lysed with cold M-PER buffer (Thermo Fisher Scientific, Pierce cat.78501) containing protease (Roche, Basel, Switzerland, cat. no. 11836153001) and phosphatase inhibitors (Pierce cat. no. 78420) and centrifugated (18,000×g for 10 min at 4° C.). Lysates were diluted to the same final volume and proteolysed in TNC buffer [50 mM Tris-HCl (pH 8.0), 50 mM NaCl, 10 mM CaCl2]. 200 μM 323-1 or 200 μM 323-2 or the same volume of DMSO were added and incubated for 1 hour at RT. Pronase solution (1.25 mg/ml, 1:100 stock solution) was diluted serially by mixing with 1×TNC buffer to create 1:300, 1:1000, 1:3000 and 1:10000 Pronase stock aliquots. Pronase was added into both DMSO and drug groups and incubated for 30 min at RT. Digestion was stopped by adding 4× loading buffer and heating to 90° C. for 10 min immediately prior to the Western blot assay according to Lomenick, et al. (Proc Natl Acad Sci USA, 2009; 106: 21984-9) and Lomenick wt al. (ACS Chem Biol. 2011; 6: 34-46). […]

For the compound `C[C@@H]1CCC(c2cc3c4c(cncc4c2)[C@@H](C)C3)=C1C=O` [323-2, (15S,2R)-Delavatine A], in data set [1], the “IL-6-induced phosphorylation of STAT3 on Tyr705” value was “inhibited”. Moreover, in the data set on LNCaP tumours (20 mg/kg or 40 mg/kg, especially high dose), the CRPC tumour growth entry is on record as “significantly inhibited CRPC tumour growth”. In the data set on LNCaP tumours (20 or 40 mg/kg), the Body weight change result is reported as “No significant body weight change”. In addition, in the data set on STAT3, the “Digestion of non-target proteins STAT1, JAK2, Src, β-actin” value is recorded as “unchanged” and the “Protection of STAT3 against pronase digestion” value is listed as “protection of the target protein STAT3”.
